Source: paper PMC10946950, “Stretching the Bisalkyne Raman Spectral Palette Reveals a New Electrophilic Covalent Motif” (Chemistry (Weinheim an Der Bergstrasse, Germany), 2023)
“Also recorded” adds a separate entry of the source.

Key:
[1] = LC-MS based glutathione (GSH) reactivity assay; type: in vitro ADME; conditions: for conversion to GS-adduct over 24 h / extent of conversion to GS-adducts (in words) / conversion to GS-adduct within 5 min: GSH, ACN:PBS buffer (1:1), 37 °C; for conversion to GS-adduct over 24 h / conversion to GS-adduct within 5 min: LC-MS 254 nm; for extent of conversion to GS-adducts (in words): runs at 5 min, 2 h; for conversion to GS-adduct over 24 h / extent of conversion to GS-adducts (in words): 24 h; for GSH reactivity compared with the electronically similar tag: 3b vs 3a, 3f vs BADY, 3g vs 3e, data not shown
Description: LC-MS Assay: To 0.5 ml of GSH (50 mmol) in assay buffer (100 mM PBS in H2O) at 37 °C, 0.5 ml of the diyne tag (5 mmol) in CH3CN was added to give a final concentration of 25 mmol and 2.5 mmol of GSH and diyne tags respectively. A magnetic stirbar was added to the assay mixture and stirred at 37 °C. Aliquots from the assay mixture were pipetted out and diluted for LC-MS (ESI+) submissions at 5 min, 2 h and 24 h time points. The chromatogram peaks at 254 nm were extracted to pick the UV-active [M+H]+ values corresponding to the unreacted tags and GS-Tag adducts. Relative intensity (or % conversion) of GS-Tag adduct compared to the unreacted tag for individual LC -MS run was calculated by taking the percentage of mAUGS-Tag divided by mAUGS-Tag + mAUunreacted tag (if A -> B, then % conversion = B/A+B). When [M+H]+ peak of the unreacted tag was below detectable limits, adduct […]
Figure S4. Overlay of the UV-active chromatograms extracted at 254 nm from the LC-MS runs of 3a, 3d, BADY, 3e, 3j and 3k. The chromatograms for each tag at 5 min (black), 2 h (green), 24 h (red) are overlaid. Minimal (3a, BADY), partial (3e) and full (3d, 3j and 3k) conversion were observed which correlated with the ring electronics. […]
are overlaid in a single graph. Conversion is deemed complete when the tag (M) was below detectable limits. * Tags isolated as a mixture of hetero-and homodimers or insoluble in the assay buffer (3i and 3c) were not included in the study. Tags 3b, 3f and 3g have not been shown as their reactivities were similar to the electronicall y similar 3a, BADY and 3e respectively. […]
(§1) (1 picture or pasted object on this page, not shown here)

ES2 cells = assay: AlamarBlue cell viability assay; type: cell-based; conditions: Homo sapiens, ES-2, incubation 72 h
Description: Cell Culture. Human ovarian cancer cell line ES2 was purchased from the American Type Culture Collection, and cells maintained in a humidified incubator at 37°C and 5% CO2 in Dulbecco’s Modified Eagle Medium (DMEM, high glucose, Pyruvate, No Glutamine) (Gibco, cat#21969035), 10% FCS, 1% L-Glutamine (200 mM, ThermoFisher, cat#25-030-081), 1% Pen/Strep (ThermoFisher, cat# […]
AlamarBlue cell viability assay. ES2 cells were plated in sextuplicate wells in a 96-well plate at 3000 cells per well. Compounds were made up as 10 mM stocks in DMSO and added to the cells after 24 h at a range of concentrations (100 µM, 30 µM, 10 µM, 3 µM, 1 µM, 0.3 µM, 0.1 µM, 0.03 µM, 0.01 µM, DMSO only) in 100µl. As a background control 6 wells were plated with media with added DMSO and without cells. After 72 h, 11µl (10%) alamarBlue cell viability reagent (ThermoFisher, cat# DAL1025) was added to each well, including the background control. The plate was incubated at 37°C for 4 h after which the absorbance of the wells was measured with a standard spectrophotometer (Tecan Spark 20M) read at 540nm excitation and 580nm emission wavelength. For each sample the background signal intensity was subtracted from the sample signal intensity and then normalized to the DMSO […]
Subsequent analysis was performed on GraphPad Prism 9 software where the concentrations were converted to a logarithmic scale to which a non -linear regression curve was fitted using the log(inhibitor) vs normalized response with a variable slope model to calculate EC50 values.
Figure S3. EC50 values for compounds 3a – 3n in ES2 cells. Values calculated from 6 technical replicates following incubation for 72 h.
as §1

[2] = NMR based GSH-reactivity assay; type: in vitro ADME; conditions: CD3CN:PBS 1:1, 37 °C
Description: NMR Assay: To 0.5 ml of assay buffer (1:1 CD3CN : 100 mM PBS in H2O), the individual diyne tags (10 mmol) were added, transferred to an NMR tube and 1H NMR spectra was acquired. To another 0.5 ml of the assay buffer, GSH (100 mmol) was added, which was then transferred to the NMR tube containing the buffer solution of the tags. The solution was mixed by inverting the tube several times. A final solution of 5 mmol tag and 50 mM GSH was achieved, a magnetic stirbar was added to the tubes and the NMR tubes were left on a stirplate at 37 °C. 1H NMR was recorded at 310 K (37 °C) after ~5 min and 24 h of reaction set up.
as §1

| conversion to GS-adduct over 24 h [1] | extent of conversion to GS-adducts (in words) [1] | GSH reactivity compared with the electronically similar tag [1] | Structure (SMILES) | EC50 (ES2 cells) [µM] | also measured |
| --- | --- | --- | --- | --- | --- |
| 1–2% | Minimal |  | COC(=O)c1ccc(C#CC#Cc2cncn2C)n1C [3 a] | ≥ 100 | change of 1H NMR 24 h post GSH addition [2]: no changes |
|  |  | similar | COC(=O)c1ccc(C#CC#Cc2cncn2C)cc1 [3 b] | ≥ 100 |  |
| reacted completely | complete conversion |  | COC(=O)c1ccc(C#CC#Cc2nccs2)cc1 [3 d] |  | conversion to GS-adduct within 5 min [1]: ~25%; extent of conversion to GS-adducts (in words) ([1]; listed as 3d): full |
| ~25% | partial |  | COC(=O)c1ccc(C#CC#Cc2ccccn2)cc1 [3 e] | 17.6 |  |
|  |  | similar | COC(=O)c1ccc(C#CC#Cc2cccnc2)cc1 [3 f] | ≥ 100 |  |
|  |  | similar | COC(=O)c1ccc(C#CC#Cc2ccncc2)cc1 [3 g] | 24.1 |  |
|  |  |  | COC(=O)c1ccc(C#CC#Cc2ccccn2)nc1 [3 i] | 1.63 |  |
|  | complete conversion |  | COC(=O)c1ccc(C#CC#Cc2ncccn2)nc1 [3 j] | 0.54 | conversion to GS-adduct within 5 min [1]: reacted completely; also recorded: complete conversion; conversion to GS-adduct within 5 min ([1]; listed as 3j): full conversion; extent of conversion to GS-adducts (in words) ([1]; listed as 3j): full |
| 1–2% | Minimal |  | C(C#Cc1ccccc1)#Cc1ccccc1 [BADY, reference compound] | ≥ 100 | change of 1H NMR 24 h post GSH addition [2]: no changes |
